Reference: patent publication US11623940B2, “Methods of nucleic acid synthesis comprising polyphosphate containing species” (Nuclera Nucleics Ltd., priority 2017, dated 2023)
Entries after “also recorded” stand apart in the source; their conditions may differ.

Key:
terminal transferase [1] = assay: dCTP tailing with terminal transferase after capping pre-treatment of initiator strand (gel); format: biochemical; settings: for incorporation of dCTP into pre-treated initiator strand when exposed to terminal transferase and dCTP: FIG. 1 lanes 5 and 6, pre-treated with dideoxynucleoside triphosphate
From the text: (§1) FIG. 1: Incorporation of dideoxynucleoside triphosphates by a terminal transferase prevents subsequent DNA synthesis. Lane 1: initiator sequence; Lane 2: dideoxyadenosine triphosphate addition; Lane 3: dideoxythymidine triphosphate addition; Lanes 4-6: duplicates of lanes 1-3 exposed to dCTP tailing conditions; Lane 7: initiator sequence. While dCTP tailing leads to the formation of a range of higher molecular weight products (Lane 4), prior treatment with a terminal transferase and dideoxynucleoside triphosphate prevents the formation of such higher molecular weight species (Lanes 5 and 6).
FIG. 2: Incorporation of tripolyphosphate by a terminal transferase prevents subsequent DNA synthesis. […] Reaction products were analysed by denaturing polyacrylamide gel and visualized by an internal FAM dye.
(§2) Data is presented herein which exemplifies the utility of dideoxynucleoside triphosphates as a capping agent by incorporating a dideoxynucleotide using a terminal transferase, and so preventing polymerization of deoxycytidine triphosphate (dCTP) in a subsequent step with terminal transferase (FIG. 1). […] When the initiator strand is exposed to terminal transferase in the presence of dCTP, many higher molecular weight products are formed (a smear on the gel) due to the uncontrolled incorporation of dCTP into the initiator strand (lane 4). […] Lane 7 is a duplicate of lane 1.
(§3) Data is presented herein which exemplifies the utility of tripolyphosphate as a capping agent by incorporating a phosphate moiety on the 3′-terminus of an oligonucleotide using a terminal transferase, and so preventing polymerization of dCTP in a subsequent step with terminal transferase (FIG. 2). […] The new species migrates faster on the polyacrylamide gel due to the additional charge presented by the new 3′-phosphate moiety. […] Following incubation with the terminal transferase and tripolyphosphate, the mixture was removed. The initiator strand was then incubated with a terminal transferase and canonical dCTP. If a free 3′-hydroxyl is present, terminal transferase will add many dCTP in an uncontrolled fashion to generate higher molecular weight oligonucleotides.

terminal transferase [2] = assay: Terminal transferase-mediated addition of capping polyphosphate species to initiator strand (denaturing polyacrylamide gel); format: biochemical; settings: for conversion of initiator strand of length N by terminal transferase-mediated addition: FIG. 1 lanes 2 and 3
From the text: as §1
FIG. 2: Incorporation of tripolyphosphate by a terminal transferase prevents subsequent DNA synthesis. Lane 1: initiator sequence; Lane 2: 1 mM sodium tripolyphosphate; Lane 3: 10 mM sodium tripolyphosphate; Lane 4: 50 mM sodium tripolyphosphate; Lanes 5-7: duplicates of lanes 2-4 exposed to dCTP tailing conditions. Reaction products were analysed by denaturing polyacrylamide gel and visualized by an internal FAM dye.
as §2, §3

Row | Compound | incorporation of dCTP into pre-treated initiator strand when exposed to terminal transferase and dCTP (terminal transferase [1]) | conversion of initiator strand of length N by terminal transferase-mediated addition (terminal transferase [2]) | dCTP polymerization by terminal transferase after capping pre-incubation (terminal transferase [1]; pre-incubation with 1 mM tripolyphosphate, FIG. 2 lane 5) | dCTP polymerization by terminal transferase after capping pre-incubation (terminal transferase [1]; pre-incubation with 5 mM tripolyphosphate, FIG. 2 lane 6) | dCTP polymerisation by terminal transferase after capping pre-incubation (terminal transferase [1]; pre-incubation with 10 mM sodium tripolyphosphate, FIG. 2 lane 6 (figure legend)) | dCTP polymerization by terminal transferase after capping pre-incubation (terminal transferase [1]; pre-incubation with 50 mM tripolyphosphate, FIG. 2 lane 7) | terminal transferase mediated 3′-phosphorylation of initiator strand (terminal transferase [2]; 1 mM tripolyphosphate, FIG. 2 lane 2) | terminal transferase mediated 3′-phosphorylation of initiator strand (terminal transferase [2]; 5 mM tripolyphosphate, FIG. 2 lane 3) | terminal transferase mediated 3′-phosphorylation of initiator sequence (terminal transferase [2]; 10 mM sodium tripolyphosphate, FIG. 2 lane 3 (figure legend)) | terminal transferase mediated 3′-phosphorylation of initiator strand (terminal transferase [2]; 50 mM tripolyphosphate, FIG. 2 lane 4)
1 | Nc1ncnc2c1ncn2[C@H]1CC[C@@H](COP(=O)(O)OP(=O)(O)OP(=O)(O)O)O1 [ddATP, dideoxyadenosine triphosphate] | resistant to incorporation of dCTP | converted to an N+1 species |  |  |  |  |  |  |  | 
2 | dideoxythymidine triphosphate [ddTTP] | resistant to incorporation of dCTP | converted to an N+1 species |  |  |  |  |  |  |  | 
3 | sodium tripolyphosphate |  |  | largely prevents this polymerization; also recorded: resistant to enzyme mediated DNA polymerisation | largely prevents this polymerization | resistant to enzyme mediated DNA polymerisation | complete polymerization to higher molecular weight species | partially converted to a new 3′-phosphorylated species; also recorded: converted to a 3′-phosphorylated initiator sequence | partially converted to a new 3′-phosphorylated species | converted to a 3′-phosphorylated initiator sequence | does not proceed
